Among the data in PMC12751012, “Nanoscale Direct-to-Biology Optimization and Structural Insights into Selective S. aureus TrmD Inhibitors” (Journal of Medicinal Chemistry, 2025) are inhibition values, retold here.

The target in the test is T1, S. aureus TrmD (Staphylococcus aureus, UniProt Q2FZ43).
T1 construct: made in house; host or cells: E. coli BL21
T1 sequence (Q2FZ43 1-245): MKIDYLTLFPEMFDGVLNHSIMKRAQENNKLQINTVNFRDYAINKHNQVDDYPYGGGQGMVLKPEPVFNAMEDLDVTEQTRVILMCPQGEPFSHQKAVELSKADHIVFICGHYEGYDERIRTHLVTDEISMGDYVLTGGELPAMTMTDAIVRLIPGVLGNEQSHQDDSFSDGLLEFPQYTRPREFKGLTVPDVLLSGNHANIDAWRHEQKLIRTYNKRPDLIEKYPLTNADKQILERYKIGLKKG
The test is described as follows: nanoSAR direct-to-biology FP displacement screening of crude triazoles. It is filed as binding. The settings on record: crude triazole at 1 μM, assuming full conversion; 500 nM TrmD, 10 nM tracer 4; read-out: % displaced tracer. Summed up: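 Crude CuAAC triazoles from alkyne 7 and 320 diverse azides were screened by FP displacement of 10 nM tracer 4 from 500 nM S. aureus TrmD. Buffer was 40 mM Tris HCl, 100 mM NaCl, 10 mM MgCl2, 5% glycerol, pH 7.5.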

The structures appear in SMILES notation.

`N#CC1(Cn2cc(-c3c[nH]c4nc[nH]c(=O)c34)nn2)CCCCC1` [Compound 03E07, O=C1NC=NC=2NC=C(C=3N=NN(C3)CC4(C#N)CCCCC4)C12]: the inhibition at 1 µM turned out to be 69%. For `O=c1[nH]cnc2[nH]cc(-c3cn(CCCN4CCCOCC4)nn3)c12` [Compound 02A10, O=C1NC=NC=2NC=C(C=3N=NN(C3)CCC[N@@H+]4CCOCCC4)C12], the inhibition at 1 µM came out at 23%.

For `O=c1[nH]cnc2[nH]cc(-c3cn(-c4ccc(-c5ccccc5)cc4)nn3)c12` [Compound 02B05, O=C1NC=NC=2NC=C(C=3N=NN(c4ccc(c5ccccc5)cc4)C3)C12], the inhibition at 1 µM was determined as 3%.

Take `COC1([C@H](CO)n2cc(-c3c[nH]c4nc[nH]c(=O)c34)nn2)CCC1` [Compound 02C06, O=C1NC=NC=2NC=C(C=3N=NN(C3)[C@H](C4(OC)CCC4)CO)C12]: the inhibition at 1 µM turned out to be 5%. Turning to `CC(C)(C)OC(=O)N1CCC[C@H](CCn2cc(-c3c[nH]c4nc[nH]c(=O)c34)nn2)CC1` [Compound 03F11, O=C(OC(C)(C)C)N1CC[C@@H](CCN2N=NC(C=3C=4C(=O)NC=NC4NC3)=C2)CCC1], the inhibition at 1 µM was 71%.

Turning to `O=C1NCCCC[C@H]1n1cc(-c2c[nH]c3nc[nH]c(=O)c23)nn1` [Compound 03A05, O=C1NC=NC=2NC=C(C=3N=NN(C3)[C@H]4C(=O)NCCCC4)C12], the inhibition at 1 µM was 40%.

On to `O=c1[nH]cnc2[nH]cc(-c3cn(CCCOC4CCC4)nn3)c12` [Compound 01C08, O=C1NC=NC=2NC=C(C=3N=NN(C3)CCCOC4CCC4)C12], for which the inhibition at 1 µM turned out to be 27%. In the case of `O=c1[nH]cnc2[nH]cc(-c3cn(Cc4nc5ccccc5o4)nn3)c12` [Compound 02G05, O=C1NC=NC=2NC=C(C=3N=NN(C3)CC=4Oc5c(N4)cccc5)C12], the inhibition at 1 µM amounted to 38%. Under `O=c1[nH]cnc2[nH]cc(-c3cn(Cc4cnc(C(F)(F)F)s4)nn3)c12` [Compound 01F06, S1C(=NC=C1CN2N=NC(C=3C=4C(=O)NC=NC4NC3)=C2)C(F)(F)F] stands 72%. As to `O=c1[nH]cnc2[nH]cc(-c3cn(Cc4cn5cccnc5n4)nn3)c12` [Compound 02C07, O=C1NC=NC=2NC=C(C=3N=NN(C3)CC=4N=C5N=CC=CN5C4)C12], the inhibition at 1 µM is 82%. `CCO[C@@H]1CCCC[C@H]1n1cc(-c2c[nH]c3nc[nH]c(=O)c23)nn1` [Compound 03D09, O=C1NC=NC=2NC=C(C=3N=NN(C3)[C@H]4[C@H](OCC)CCCC4)C12]: the inhibition at 1 µM came out at 25%.

As for `O=c1[nH]cnc2[nH]cc(-c3cn(-c4cc(F)ccc4F)nn3)c12` [Compound 02F10, Fc1c(N2N=NC(C=3C=4C(=O)NC=NC4NC3)=C2)cc(F)cc1], the inhibition at 1 µM is 15%.

For the molecule `O=C1NC[C@@H](Cn2cc(-c3c[nH]c4nc[nH]c(=O)c34)nn2)O1` [Compound 02F04, O=C1O[C@H](CN2N=NC(C=3C=4C(=O)NC=NC4NC3)=C2)CN1], the inhibition at 1 µM came out at 45%. `O=c1[nH]cnc2[nH]cc(-c3cn(CCCCCO)nn3)c12` [Compound 02B01, O=C1NC=NC=2NC=C(C=3N=NN(C3)CCCCCO)C12]: the inhibition at 1 µM turned out to be 27%. Then `O=c1[nH]cnc2[nH]cc(-c3cn(-c4nccs4)nn3)c12` [Compound 02D03, S1C(=NC=C1)N2N=NC(C=3C=4C(=O)NC=NC4NC3)=C2], with 7%; and `N#Cc1ccc(-n2cc(-c3c[nH]c4nc[nH]c(=O)c34)nn2)cc1` [Compound 02D05, O=C1NC=NC=2NC=C(C=3N=NN(c4ccc(C#N)cc4)C3)C12], with 1.83%; and `CC(C)(C)n1cc(-c2c[nH]c3nc[nH]c(=O)c23)nn1` [Compound 03H11, O=C1NC=NC=2NC=C(C=3N=NN(C3)C(C)(C)C)C12], with 11%. Under `C[C@@H](C(=O)Nc1ccccc1)n1cc(-c2c[nH]c3nc[nH]c(=O)c23)nn1` [Compound 01F02, O=C1NC=NC=2NC=C(C=3N=NN(C3)[C@H](C(=O)Nc4ccccc4)C)C12] stands 28%; under `NS(=O)(=O)c1ccc(-n2cc(-c3c[nH]c4nc[nH]c(=O)c34)nn2)cc1` [Compound 02B06, S(=O)(=O)(N)c1ccc(N2N=NC(C=3C=4C(=O)NC=NC4NC3)=C2)cc1], 17%.
